# Experiment: Absorbance at photostationary state (PSS) under simulated sunlight or 365 nm light
# Assay type: physicochemical
# Set-up: λ max: unit not given here
# Conditions: for Absorbance at PSS, 365 nm: 365 nm light source; for Absorbance at PSS, 365 nm / Absorbance at PSS, full / Absorbance at PSS, +UV / λ max: 2.0×10^−5 M in triglyme; for sensitivity index: ratio of PSS under 365 nm light to PSS under full spectrum light (without UV blocking film); for Absorbance at PSS, full: simulated sunlight (QSUN solar simulator), no UV blocking film; for Absorbance at PSS, +UV: simulated sunlight with UV blocking film (cutoff 370 nm); for λ max: wavelength of maximum absorbance in the visible range, ring-closed isoform
# Experimental: Absorbance at a PSS for selected compounds was measured at 2.0×10^−5 M in triglyme in the absence (full) or presence (+UV) of a UV blocking film with a UV cutoff wavelength of 370 nm (10% transmission at 370 nm), using simulated sunlight (QSUN solar simulator) as a light source, or a 365 nm light source; these PSS are reported in Tables 1.5. […] “Switch” refers to the ability (yes or no) of the compound to be reversibly converted under photochromic and electrochromic conditions between a ring-open isomer and ring-closed isomer.
# A sensitivity index (SI) is a ratio of the PSS under 365 nm light to the PSS under full spectrum light (without UV blocking film). SI is an indicator of the sensitivity of the compound to the composition of the incident light (a change in the ratio of UV and visible components)—photochemical ring-opening is induced by a portion of the visible light spectrum.
# Photostationary State (PSS) UV/Vis spectra are obtained using an OceanOptics™ Spectrophotometer until absorption in the visible region of the spectrum stabilizes. A 2×10^−5M solution of compound in solvent is prepared, and photofaded using visible light until absorption in the visible region of the spectrum stabilizes. The sample is then irradiated with simulated sunlight (QSUN SS-150 Solar Simulator with xenon arc lamp) until the absorption spectrum stabilizes. To obtain PSS in the presence of a UV blocking film, a second sample is prepared and irradiated as described, with a UV blocking film inserted in the light path when irradiating.
Structure (SMILES),"Absorbance at PSS, 365 nm",sensitivity index,"Absorbance at PSS, full","Absorbance at PSS, +UV",λ max
"Cc1csc(-c2cc(C3=C(c4cc(-c5cc(C)cs5)sc4-c4cc(C)cs4)C(F)(F)C(F)(F)C3(F)F)c(-c3cc(C)cs3)s2)c1 [S149, 3′,3″″-(perfluorocyclopent-1-ene-1,2-diyl)bis(4,4″-dimethyl-2,2′:5′,2″-terthiophene)]",0.339,1.41,0.241,0.169,647
"N#Cc1ccc(-c2cc(C3=C(c4cc(-c5ccc(C#N)cc5)sc4-c4ccc(C#N)cc4)C(F)(F)C(F)(F)C3(F)F)c(-c3ccc(C#N)cc3)s2)cc1 [S074, 3,3′-(perfluorocyclopent-1-ene-1,2-diyl)bis(2,5-bis(4-cyanophenyl)thiophene)]",0.189,2.74,0.069,0.024,620
"FC1(F)C(c2c(-c3ccccc3)sc3ccccc23)=C(c2c(-c3ccccc3)sc3ccccc23)C(F)(F)C1(F)F [S014, 3,3′-(perfluorocyclopent-1-ene-1,2-diyl)bis(2-phenylbenzo[b]thiophene)]",0.011,2.75,0.004,0.006,525
"Cc1cc(-c2sc(-c3sc(C)c(C)c3C)cc2C2=C(c3cc(-c4sc(C)c(C)c4C)sc3-c3cc(C)c(C)s3)C(F)(F)C(F)(F)C2(F)F)sc1C [S148, 4′,4″″-(perfluorocyclopent-1-ene-1,2-diyl)bis(3,4,4″,5,5″-pentamethyl-2,2′:5′,2″-terthiophene)]",0.244,1.63,0.15,0.092,650
"COc1ccc(-c2sc(-c3ccc(/C=C/c4ccccc4)cc3)cc2C2=C(c3cc(-c4ccc(/C=C/c5ccccc5)cc4)sc3-c3ccc(OC)cc3)C(F)(F)C(F)(F)C2(F)F)cc1 [S088, (E)-3,3′-(perfluorocyclopent-1-ene-1,2-diyl)bis(2-(4-methoxyphenyl)-5-(4-((E)-styryl)phenyl)thiophene)]",0.457,2.26,0.202,0.132,656
"CC(C)(C)c1ccc(-c2cc(C3=C(c4cc(-c5ccc(C(C)(C)C)s5)sc4-c4cccs4)C(F)(F)C(F)(F)C3(F)F)c(-c3cccs3)s2)s1 [S170, 4,4′-(perfluorocyclopent-1-ene-1,2-diyl)bis(5′-tert-butyl-5-(thiopheyl)-2,2′-bithiophene)]",–,–,0.287,0.182,645
CC(C)(C)c1ccc(-c2cc(C3=C(c4cc(-c5sc(C(C)(C)C)cc5C(=O)O)sc4-c4ccc(C(=O)O)s4)C(F)(F)C(F)(F)C3(F)F)c(-c3ccc(C(=O)O)s3)s2)s1 [S124],0.344,1.38,0.249,0.225,649
"CC(C)(C)c1ccc(-c2cc(C3=C(c4cc(-c5ccc(C(C)(C)C)s5)sc4-c4ccc(N5CCOCC5)cc4)C(F)(F)C(F)(F)C3(F)F)c(-c3ccc(N4CCOCC4)cc3)s2)s1 [S112, 4,4′-((4,4″-(perfluorocyclopent-1-ene-1,2-diyl)bis(5′-(tert-butyl)-[2,2′-bithiophene]-5,4-diyl))bis(4,1-phenylene))dimorpholine]",0.318,1.14,0.278,0.246,663
Cc1sc(-c2cc(C3=C(c4cc(-c5sc(C)c6c5OCCO6)sc4-c4sc(C)c5c4OCCO5)C(F)(F)C(F)(F)C3(F)F)c(-c3sc(C)c4c3OCCO4)s2)c2c1OCCO2 [S036],0.174,7.25,0.024,0.016,665
"CCOCCOCCOCCOc1ccc2c(C3=C(c4c(-c5ccc(C(C)(C)C)cc5)oc5cc(OCCOCCOCCOCC)ccc45)C(F)(F)C(F)(F)C3(F)F)c(-c3ccc(C(C)(C)C)cc3)oc2c1 [S161, 3,3′-(perfluorocyclopent-1-ene-1,2-diyl)bis(2-(4-(tert-butyl)phenyl)-6-(2-(2-(2-ethoxyethoxy)ethoxy)ethoxy)benzofuran)]",0.455,3.73,0.122,0.06,511
"COc1ccc2c(C3=C(c4c(-c5ccc(-c6ccc(C(C)(C)C)s6)s5)oc5cc(OC)ccc45)C(F)(F)C(F)(F)C3(F)F)c(-c3ccc(-c4ccc(C(C)(C)C)s4)s3)oc2c1 [S152, 3,3′-(perfluorocyclopent-1-ene-1,2-diyl)bis(2-(5′-(tert-butyl)-[2,2′-bithiophen]-5-yl)-6-methoxybenzofuran)]",0.263,3.81,0.069,0.06,522
"FC1(F)C(c2cc(-c3ccc(Cl)s3)sc2-c2ccc(Cl)s2)=C(c2cc(-c3ccc(Cl)s3)sc2-c2ccc(Cl)s2)C(F)(F)C1(F)F [S026, 3′,3″″-(perfluorocyclopent-1-ene-1,2-diyl)bis(5,5″-dichloro-2,2′:5′,2″-terthiophene)]",0.383,1.53,0.251,0.196,645
"FC1(F)C(c2cc(-c3ccc(Cl)cc3)sc2-c2ccc(Cl)cc2)=C(c2cc(-c3ccc(Cl)cc3)sc2-c2ccc(Cl)cc2)C(F)(F)C1(F)F [S056, 3,3′-(perfluorocyclopent-1-ene-1,2-diyl)bis(2,5-bis(4-chlorophenyl)thiophene)]",0.194,2.73,0.071,0.026,610
"Cc1ccc(-c2sc(-c3cccs3)cc2C2=C(c3cc(-c4cccs4)sc3-c3ccc(C)s3)C(F)(F)C(F)(F)C2(F)F)s1 [S027, 3′,3″″-(perfluorocyclopent-1-ene-1,2-diyl)bis(5-methyl-2,2′:5′,2″-terthiophene)]",0.281,1.80,0.156,0.116,645
"CC(C)(C)c1ccc(-c2cc(C3=C(c4cc(-c5ccc(C(C)(C)C)s5)sc4-c4ccc(O)cc4)C(F)(F)C(F)(F)C3(F)F)c(-c3ccc(O)cc3)s2)s1 [S105, 4,4′-(4,4″-(perfluorocyclopent-1-ene-1,2-diyl)bis(5′-(tert-butyl)-[2,2′-bithiophene]-5,4-diyl))diphenol]",0.272,1.38,0.197,0.134,647
"COc1ccc2c(C3=C(c4c(-c5ccc(C(C)(C)C)cc5)oc5cc(OC)ccc45)C(F)(F)C(F)(F)C3(F)F)c(-c3ccc(C(C)(C)C)cc3)oc2c1 [S151, 3,3′-(perfluorocyclopent-1-ene-1,2-diyl)bis(2-(4-(tert-butyl)phenyl)-6-methoxybenzofuran)]",0.403,3.80,0.106,0.056,514
